# Test results reported in patent publication US20220062299A1, “USE OF GLUCOCORTICOID STEROIDS IN PREVENTING AND TREATING CONDITIONS OF MUSCLE WASTING, AGING AND METABOLIC DISORDER” (NORTHWESTERN UNIVERSITY, priority 2018, published 2022).
# Experiments:
# [1] = test system: mdx mice; experiment: Dosing of metabolic and endocrine biomarkers in blood, serum and tissues, mdx mice, long-term (40 weeks) weekly prednisone; type: in vivo
# [2] = test system: Klf15, Mef2C, Foxo3 loci in mdx muscle; experiment: H3K27ac ChIP-seq on myofibers integrated with RNA-seq of mdx muscle; type: in vivo, mouse
# Method: H3K27ac ChIP-seq on muscle myofibers. Freshly-isolated whole quadriceps muscles (both per mouse) were finely minced and digested in 10 ml/muscle of PBS supplemented with 1 mM CaCl2 and 100 U/ml collagenase II (Cat #17101, Life Technologies, Grand Island, N.Y.) at 37° C. for 1 hour with shaking. The suspension was then filtered through a 40 μm strainer (Cat #22363547, Fisher Scientific, Waltham, Mass.) and the unfiltered fraction (enriched in myofibers) was kept for further steps. Separation of mononuclear fraction in the filtered fraction was confirmed at the microscope. Myofibers were fixed in 10 ml 1% PFA for 30 minutes at room temperature with gentle nutation. Fixation was quenched 1 ml of 1.375M glycine (Cat #BP381-5, Fisher Scientific, Waltham, Mass.) with gentle nutation for 5 minutes at room temperature. After centrifugation at 3000 g for 5 minutes, myofibers were lysed in 1.4 ml lysis buffer with approximately 25 μl 2.3 mm zirconia/silica beads (Cat #11079125z, BioSpec, Bartlesville, Okla.). Lysis buffer consisted of 10 mM HEPES (pH 7.3; Cat #H3375), 10 mM KCl (Cat #P9541), 5 mM MgCl2 (Cat #M8266), 0.5 mM DTT (Cat #646563), 3 μg/ml cytochalasin B (C6762; all reagents from Sigma, St. Louis, Mo.); protease inhibitor cocktail (Cat #11852700, Roche, Mannheim, Germany)). Myofibers were them homogenized by means of Mini-BeadBeater-16 (Cat #607, Biospec, Bartlesville, Okla.) for 30 sec, then by rotating at 4° C. for 30 minutes. […] DNA was purified using the MinElute purification kit (cat #28004; Qiagen, Hilden, Germany), quantitated using Qubit reader and reagents. Library preparation and sequencing were conducted at the NU Genomics Core, using TrueSeq ChiP-seq library prep (with size exclusion) on 5 ng chromatin per ChIP sample or pooled input, and HiSeq 50 bp single-read sequencing (approximately 60 million read coverage per sample). […]
smiles,measurement,setting,value
"C[C@]12C=CC(=O)C=C1CC[C@@H]1[C@@H]2C(=O)C[C@@]2(C)[C@H]1CC[C@]2(O)C(=O)CO [prednisone, Prednisone]","ATP, NAD+, and glycogen in muscle and blood lactate",[1],increase
same,Foxo3 and other muscle atrophy factors,[2]; daily prednisone,upregulation
same,levels of Klf15 and Mef2C,[2]; daily prednisone,reduced
same,H3K27ac marks and transcription of Klf15 and Mef2C,[2]; weekly prednisone,increased
